Where two headings read alike, the source gives them in different places.
Columns and labels:
human albumin (HA) [1] = target: T1, human albumin (HA) (Homo sapiens, UniProt P02768); experiment: SPR adsorption and desorption cycles of HA on functionalized chips with release agents; type: binding; details: for SPR angle shift after HA binding: 2 mg/mL HA, functionalized SPR chip; for Release percentage (highest observed; %) NaSCN (2M): release agent NaSCN 2M; for Release percentage (highest observed; %) SDS (35 mM): release agent SDS 35 mM; for release of bound HA, SPR results: CB chips, quoted for comparison with column; for Release percentage (highest observed; %) pH 3.6: release by pH 3.6 buffer
Method: SPR tests: A temperature controlled NanoSPR8 Model 481 device with a 4-channel flow cell was used and calibration and warm up were performed (2 hr) prior to tests. Two flow cell channels were set as reference in all tests. Basic solution with surfactant (0.1 M NaOH and 1% SDS). acidic solution (0.1 M HCl), and water were used to clean the testing flow cell and tubing system.
A phosphate buffer solution (PB) for SPR studies was prepared by dissolving 21.48 g Na2HPO4 and 3.11 g KH2PO4 in 1 L Milli-Q water for SPR tests. With this buffer a variety of solutions were prepared: NaCl. Na2SO4 and NaSCN was dissolved in the PB to prepare a 2 M solution. Sodium dodecyl sulfate (SDS) solution of 1 wt % (˜35 mM) was prepared by dissolving SDS in PB with aid of bath sonication. Fatty acid solutions were made by pipetting fatty acid into PB and bath sonicating. Linoleic acid solution (LA) included 1.8 μL of LA and 10 mL PB. Fatty acid mix solution (FA mix) was prepared by dispersing 1.8 μL linoleic acid, 1.05 μL oleic acid and 1.08 μL palmitic acid in 10 mL PB. FA mix was an inhomogeneous emulsion due to the limited solubility of fatty acids even with the aid of bath sonication.
[…] The test was carried out in sequence of HA solution, buffer rinse, releasing agent rinse, buffer rinse, in cycles after an initial PB rinse. Three absorption and desorption cycles were performed on each sample for repeatability/stability. The first two cycles used the same release agents of interest and the third cycle used a reference release agent, usually 2 M NaSCN.
Percentage of HA released by different release agents was calculated by dividing the value difference between the […] adsorption SPR peak shift value (‘Adsorb’ in FIG. 7) and post-release signal value (‘Release’ in FIG. 7) using
SPR shift has a strong dependence on solution conditions, thus one can only compare shift signals after a buffer rinse. The initial sensor baseline is set to zero. For the first cycle, after initial HA exposure and buffer rinse a shift of 0.225 is seen corresponding to full HA coverage. After LA exposure and buffer rinse a drop in shift 0.122 is seen instead of the ideal zero if HA is completely released to initial state. The percent released is calculated as (0.225-0.122)/0.225 or ˜46%. […] Even though the total amount of captured protein remains stable, an increasing amount of un-released protein over cycles was observed. Un-releasable protein was expected due to fouling onto unprotected surface of desorbed surface chemistry and practical limitations of buffer rinse times. […] SPR angle shifts and releasability percent as a function of surface functionalization and release chemical are summarized in Table 2.

human albumin (HA) [2] = target: T1, human albumin (HA); experiment: SPR Langmuir isotherm of HA adsorption on ligand-functionalized sensor chips; type: binding; details: read-out: Kd of HA on SPR sensor modified with different ligands
Method: Langmuir Isotherm: HA was dissolved in PB to make solutions with concentration range from 0.1 mg/mL to 2.0 mg/mL for adsorption study. Such HA solutions were pumped through the flow cell in low to high sequence with 20 min. adsorption time for each solution. Between each HA adsorption session, buffer was used to rinse off unbound protein residue for 20 min. PB signal from selected reference channels was used as baseline.
Prior to further analysis, the raw SPR data, absolute maximum absorption angle versus time, was referenced to a baseline reading. A 3-point running average was applied to reduce noise.
The values of SPR signal shift (in degrees) induced by HA solutions of different concentrations were manually identified. For Langmuir adsorption model fitting, the SPR signal shifts were converted to fractional occupancy of adsorption sites (θ) by assuming 0% and 100% site occupancy under 0 mg/mL and 2 mg/mL HA solution treatment, respectively. After plotting the concentration on x-axis and θ on y-axis, the data was fitted to a Langmuir isotherm model with equation
The adsorption constant, Ka, was obtained under the best fitting condition. The desorption constant.

HSA = HSA (Homo sapiens, UniProt P02768); experiment: HSA adsorption/desorption on Cibacron blue column with LA solutions of varying concentration; type: binding; details: LA 8 μl/10 ml, HSA 40 mg/ml, CB beads
Method: To test the aforementioned hypotheses, a series of experiments were conducted using LA solutions of varying concentrations and HSA solutions with a concentration of 40 mg/ml. […] The first adsorption-desorption cycle was executed with phosphate buffer serving as a mock release agent to reveal the actual desorption strength of the release agent. The amount of HSA released by LA was quantified by integrating the area beneath the release session curve and subtracting the baseline corresponding to the phosphate buffer rinse. This value represents the fraction of HSA that can be manipulated by the LA solution in a reversible manner. In this context, the adsorption of this fraction of HSA onto the Cibacron blue functionalized beads (CB beads) was considered reversible by LA. Subsequently, the reversible adsorption capacity of CB beads and the albumin release peak height, from FIG. 11A, were plotted against the LA solution concentration, as shown in FIG. 11B.

[3] = target: T2, human albumin indoxyl sulfate complex (HA-IS) (Homo sapiens, UniProt P02768); experiment: Adsorption column of CB-functionalized agarose beads with HA-IS, BCA assay of eluent; type: binding; details: for release of HA bound to the column: release capacity compared to binding capacity
T2 construct: purchased Sigma-Aldrich
Excerpt: Adsorption column (set-up): Devcon 5-minute epoxy in Dev-tube (ITW Polymer Adhesives, USA) was used on all epoxied parts of the column and was allowed to cure for an hour before use. Agarose beads functionalized with Cibacron Blue dye and suspended in 20% ethanol and 0.1 M KH2PO4 (Blue Sepharose Fast Flow 6, GE Healthcare, USA) was obtained and used as-is.
As shown at FIGS. 5A and 5C, glass tube 15a holds agarose beads functionalized with human albumin binding chemistry Cibacron Blue dye, and a barbed inlet/outlet 15b with Luer lock and needle tip is included to flow a solution in and out of glass tube 15a. An interchangeable solution reservoir feed 15c is included. Specifically, glass tube 15a (inner diameter=4 mm) was cut to 4.1 cm (0.52 mL volume). Two sheets of 10.0 μm pore size Teflon membrane filters (Sterlitech Corp., USA) covered the eluent end of the tube and were sealed around the edge with larger diameter elastic tubing (Tygon SE-200, Saint-Gobain Corp., USA) with excess membrane trimmed by knife. The tubing was secured to the tube via glass-compatible glue (Loctite, Henkel AG & Co. KGaA. Germany) and then epoxied to prevent air leakage. The beads in their suspension fluid (0.739 mL total slurry) were pipetted into the tube on top of the membrane seal and drained to form a bed of beads. The other end of the tube was sealed with membrane filters and tubing in a similar manner. Both ends 15b of the bead bed tube were connected to a Luer lock needle assembly that were epoxied to input tubing to prevent fluid leakage. The solution reservoir 15c included a syringe and a Luer lock connection. The column was suspended vertically and syringe pump (Model NE 300, New Era Pump Systems, Inc., USA) set to 4.0 mL/min with 125-250 μL samples collected at time points with lag time experimentally accounted for. Replacing of solutions occurred by switching out the syringe at the base of the Luer lock needle assembly in 15b, ensuring no air bubbles were introduced.
A phosphate buffer (PB) (pH 7.4) for the adsorption column was prepared to mimic the salt composition of human blood serum. 144.3 mg/L CaCl2), 4.26 g/L Na2HPO4, 612.4 mg/L KH2PO4, 85.7 mg/L MgCl2, and 4.68 g/L NaCl were dissolved in HPLC-grade submicron filtered water under stirring and heat, then filtered through a 10.0 μm membrane filter. NaCl was purchased from EMD Chemicals Inc. (Germany): all other chemicals were obtained from Sigma-Aldrich (USA). NaSCN, indoxyl sulfate, and HA solutions were prepared by simple dissolution in PB. 0.58 mM linoleic acid (LA) solution was prepared by pipetting liquid LA into phosphate buffer and sonicating in 10-minute increments until micelles were formed and evenly distributed, indicated by the solution becoming uniformly cloudy. Solutions of micro BCA protein assay were prepared as instructed in a kit obtained from Thermo Scientific (USA).
In cycles, phosphate buffer, HA-IS complex solution, phosphate buffer, and then release agents (linoleic acid or NaSCN) were pumped through the column and the eluent was collected. CB-functionalized beads were expected to adsorb HA-IS and cause the dissociation of IS from the captured HA. Release agents were expected to cause desorption of captured IS-free HA from the adsorption column. These adsorption and desorption behaviors were studied by optical absorbance at 280 nm of the eluent proportional to HA-IS concentration. […] Then both LA and NaSCN release HA from the adsorption column. […] Without wishing to be bound by theory, it is thought that the delayed LA release was caused by LA micelles dissolving at the buffer solution exchange front where concentration drops below the critical micelle concentration (0.1 mM) giving more free-floating molecules of LA capable of release. This release profile may be optimized by multiple shorter buffer/LA cycles.
Bicinchoninic acid (BCA) assay is a protein sensitive quantification method which was used in this example to measure the concentration of HA. […]

[4] = cited from earlier work
[5] = with respect to a monolayer protein binding signal strength

T2 sequence (P02768 25-609, one chain of several): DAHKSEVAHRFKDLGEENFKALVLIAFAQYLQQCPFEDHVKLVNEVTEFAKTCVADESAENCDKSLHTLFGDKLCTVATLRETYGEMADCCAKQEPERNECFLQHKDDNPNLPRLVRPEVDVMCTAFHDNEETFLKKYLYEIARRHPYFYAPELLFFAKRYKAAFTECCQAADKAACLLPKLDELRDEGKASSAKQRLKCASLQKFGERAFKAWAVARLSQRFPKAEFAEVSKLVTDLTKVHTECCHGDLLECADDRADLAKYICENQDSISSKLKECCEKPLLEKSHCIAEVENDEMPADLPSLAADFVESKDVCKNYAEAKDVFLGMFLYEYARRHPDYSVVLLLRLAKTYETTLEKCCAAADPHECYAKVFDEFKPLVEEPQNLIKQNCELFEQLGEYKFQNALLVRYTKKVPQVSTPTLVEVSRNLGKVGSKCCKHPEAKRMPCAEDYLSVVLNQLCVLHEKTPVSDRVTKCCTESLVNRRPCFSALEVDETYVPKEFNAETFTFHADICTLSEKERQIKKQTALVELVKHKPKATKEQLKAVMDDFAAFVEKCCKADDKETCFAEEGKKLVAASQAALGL
T1 sequence (P02768 25-609): as the sequence (P02768 25-609, one chain of several) above
Sequence of HSA (P02768 25-609): as the sequence (P02768 25-609, one chain of several) above

For `Nc1ccc2c(O)c(N=Nc3ccc(N=Nc4ccc(N=Nc5cc(S(=O)(=O)[O-])c6cccc(S(=O)(=O)[O-])c6c5)c5ccccc45)c4ccc(S(=O)(=O)[O-])cc34)c(S(=O)(=O)[O-])cc2c1.[Na+].[Na+].[Na+].[Na+]` [Direct Blue 71], the “SPR angle shift after HA binding” value (human albumin (HA) [1]) was ~0.19 °, the “SPR angle shift after HA binding” value (human albumin (HA) [1]; listed as DB71) was 0.19 ° and the “Release percentage (highest observed; %) NaSCN (2M)” value (human albumin (HA) [1]) was 0%. For the same compound, the “Release percentage (highest observed; %) SDS (35 mM)” value (human albumin (HA) [1]) was 0% and the Kd (human albumin (HA) [2]; HA 0.1-2.0 mg/mL in PB, Langmuir fit, Kd=1/Ka) was 1.1 µM.

For `CCCCC/C=C\C/C=C\CCCCCCCC(=O)O` [LA, linoleic acid], the HSA desorption capacity (HSA) was 19.44 mg/ml beads, the “release of bound HA, SPR results” value (human albumin (HA) [1]; SPR) was 31% and the “albumin release capacity on CB surface” value (human albumin (HA) [1]; SPR, CB surface, concentrations of about 0.5 μg/mL) was 44.1%. The release capacity ([3]; CB-agarose bead column, summary b116) was ~0.2 μmol HA/mL beads, the release capacity ([3]; CB-agarose bead column, summary b116, per mL beads) was 13.5 mg/mL and the release amounts ([3]; Cibacron blue agarose beads, plasma compatible linoleic acid as release agent) was 0.23 μmol HA/mL beads. The release capacity ([3]; cycle 1, CB-agarose bead column, BCA assay) was 0.177 μmol HA/mL beads, the release capacity ([3]; cycle 2, CB-agarose bead column, BCA assay) was 0.232 μmol HA/mL beads and the “release of HA bound to the column” value [3] was “at least 47%”. For the same compound, the “HSA desorption capacity, previous study” value ([3]; value from the previous study) was 15.3 mg/ml beads and the solubility in water [4] was “insoluble”.

With `CCCCCCCC` [Octane (C8; Alkane), Octane] the “SPR angle shift after HA binding” value (human albumin (HA) [1]) was ~0.11 °, the “SPR angle shift after HA binding” value (human albumin (HA) [1]; listed as Octane) was 0.110 ° and the “Release percentage (highest observed; %) NaSCN (2M)” value (human albumin (HA) [1]) was 51.4%. The “Release percentage (highest observed; %) SDS (35 mM)” value (human albumin (HA) [1]) was 29.5%.

With `N#C[S-].[Na+]` [NaSCN, reference compound] the “release of bound HA, SPR results” value (human albumin (HA) [1]; SPR) was 65%, the release capacity ([3]; cycle 3, CB-agarose bead column, BCA assay) was 0.292 μmol HA/mL beads and the “release of HA bound to the column” value [3] was ≥ 79%.

In the case of `Nc1c(S(=O)(=O)O)cc(Nc2ccc(Nc3nc(Cl)nc(Nc4ccccc4S(=O)(=O)O)n3)c(S(=O)(=O)O)c2)c2c1C(=O)c1ccccc1C2=O` [Cibacron Blue], the “SPR angle shift after HA binding” value (human albumin (HA) [1]; listed as CB) is reported as 0.25 °, the “SPR angle shift after HA binding” value (human albumin (HA) [1]; listed as Cibacron Blue (CB)) is reported as ~0.25 ° and the “monolayer averaged SPR signal shift” value (human albumin (HA) [1]; average over chips (CB n=76; capric acid n=50)) is reported as 0.23 °. For the same compound, the “Release percentage (highest observed; %) Na2SO4 (2M)” value (human albumin (HA) [1]; release agent Na2SO4 2M) was 12.7%, the “Release percentage (highest observed; %) NaCl (2M)” value (human albumin (HA) [1]; release agent NaCl 2M) was 34% and the “Release percentage (highest observed; %) NaSCN (2M)” value (human albumin (HA) [1]) was 78.0%. For the same compound, the “Release percentage (highest observed; %) SDS (35 mM)” value (human albumin (HA) [1]) was 93.0%, the “Release percentage (highest observed; %) FA mix” value (human albumin (HA) [1]; release agent fatty acid mix) was 49.5% and the “Release percentage (highest observed; %) lbp (0.1 mM)” value (human albumin (HA) [1]; release agent lbp 0.1 mM) was 0%. For the same compound, the “Release percentage (highest observed; %) LA (0.6 mM)” value (human albumin (HA) [1]; release agent linoleic acid 0.6 mM) was 44.1%, the “Release percentage (highest observed; %) pH 3.6” value (human albumin (HA) [1]) was 0% and the “Human serum albumin desorption percent, release agent Fatty Acid Mix” value (human albumin (HA) [1]; [5]) was 37.4 ± 14.2%. The “Human serum albumin desorption percent, release agent Linoleic Acid” value (human albumin (HA) [1]; [5]) was 31.0 ± 18.9%, the “Human serum albumin desorption percent, release agent NaSCN” value (human albumin (HA) [1]; [5]) was 65.0 ± 12.3% and the Kd (human albumin (HA) [2]) was 3 µM.

In the case of `N[C@@H](Cc1c[nH]c2ccccc12)C(=O)O` [Tryptophan (NH2 term), Tryptophan], the “SPR angle shift after HA binding” value (human albumin (HA) [1]) is reported as ~0.17 °, the “SPR angle shift after HA binding” value (human albumin (HA) [1]; listed as tryptophan of —NH2 terminus) is reported as 0.170 ° and the “Release percentage (highest observed; %) NaSCN (2M)” value (human albumin (HA) [1]) is reported as 15.0%. The “Release percentage (highest observed; %) SDS (35 mM)” value (human albumin (HA) [1]) was 0% and the “Release percentage (highest observed; %) pH 3.6” value (human albumin (HA) [1]) was 0%.

For `N[C@@H](Cc1c[nH]c2ccccc12)C(=O)O` [Tryptophan (COOH term), Tryptophan], the “SPR angle shift after HA binding” value (human albumin (HA) [1]) was ~0.19 °, the “SPR angle shift after HA binding” value (human albumin (HA) [1]; listed as tryptophan of —COOH terminus) was 0.19 ° and the “Release percentage (highest observed; %) NaSCN (2M)” value (human albumin (HA) [1]) was 0%. For the same compound, the “Release percentage (highest observed; %) pH 3.6” value (human albumin (HA) [1]) was 0%.
